Experimental data as given in DBAASP.
≈ marks a conversion by molar mass, not a printed value. Blank lines part the entries; values can stand above or below the compound they belong to.

Assays:
Experiment in all cases: ≥ marks a high value that may be exact or a test limit, other limits are often not marked, values filed in µg/mL are converted to µM
[1] = test system: Staphylococcus aureus ATCC 25923
[2] = test system: Staphylococcus epidermidis RP62A
[3] = test system: Candida albicans ATCC 90028
[4] = test system: Staphylococcus epidermidis RP62A/1
[5] = test system: Stenotrophomonas maltophilia B32/4
[6] = test system: Acinetobacter baumannii NM8
[7] = test system: Escherichia coli ATCC 25726
[8] = test system: Klebsiella pneumoniae ATCC 700603
[9] = test system: Pseudomonas aeruginosa ATCC 27853
[10] = test system: Xanthomonas axonopodis pv. citri
[11] = test system: Staphylococcus aureus ATCC 29313
[12] = test system: Escherichia coli ATCC 25922
[13] = test system: Salmonella enterica subsp. enterica serovar Typhimurium ATCC 700408
[14] = test system: Staphylococcus aureus ATCC BAA-39
[15] = test system: Salmonella enterica subsp. enterica serovar Typhimurium ATCC 14028
[16] = test system: Listeria monocytogenes ATCC 19115
[17] = test system: Klebsiella pneumoniae ATCC 13883
[18] = test system: Staphylococcus aureus ATCC 43300
Bacillus megaterium = test system: Bacillus megaterium
Klebsiella pneumoniae = test system: Klebsiella pneumoniae
Listeria monocytogenes = test system: Listeria monocytogenes
Escherichia coli 363 = test system: Escherichia coli 363
[19] = test system: Staphylococcus haemolyticus
Salmonella typhimurium = test system: Salmonella typhimurium
Aspergillus fumigatus = test system: Aspergillus fumigatus
[20] = test system: Staphylococcus epidermidis ATCC 35984
[21] = test system: Staphylococcus aureus ATCC 49230
[22] = test system: Legionella pneumophila ATCC 33215
[23] = test system: Legionella micdadei ATCC 33218
Bacillus megaterium F04 = test system: Bacillus megaterium F04
[24] = test system: Legionella oakridgensis ATCC 33761
[25] = test system: Legionella pneumophila Lens
[26] = test system: Legionella bozemanae ATCC 33217
[27] = test system: Legionella feeleii ATCC 35072
[28] = test system: Legionella pneumophila ATCC 33216
[29] = test system: Legionella longbeachae ATCC 33484
[30] = test system: Legionella pneumophila ATCC 33155
[31] = test system: Legionella pneumophila Corby
[32] = test system: Legionella pneumophila Paris

MIC [10]: 5 µM (≈ 7.57 µg/mL)
MIC [12]: 85 µM (≈ 129 µg/mL)
MIC [9]: 170 µM (≈ 257 µg/mL)
Structure (SMILES): CC(C)C[C@H](NC(=O)[C@H](CO)NC(=O)[C@H](CCCCN)NC(=O)[C@H](CC(C)C)NC(=O)[C@H](CCCCN)NC(=O)[C@H](CC(=O)O)NC(=O)[C@H](CC(C)C)NC(=O)[C@H](Cc1c[nH]c2ccccc12)NC(=O)[C@H](C)N)C(=O)NCC(=O)N[C@@H](CCCCN)C(=O)N[C@H](C(=O)N[C@H](C(=O)NCC(=O)O)C(C)C)C(C)C [AWLDKLKSLGKVVG]
MIC [11]: ≥ 170 µM

MIC (Bacillus megaterium): 0.4 µM (≈ 1.21 µg/mL)
MIC (Klebsiella pneumoniae): 12.5 µM (≈ 37.9 µg/mL)
MIC (Listeria monocytogenes): 0.4 µM (≈ 1.21 µg/mL)
MIC (Escherichia coli 363): 3.1 µM (≈ 9.41 µg/mL)
MIC (Salmonella typhimurium): 3.1 µM (≈ 9.41 µg/mL)
Structure (SMILES): CC[C@H](C)[C@H](NC(=O)[C@H](CCSC)NC(=O)[C@H](CC(C)C)NC(=O)[C@H](CC(C)C)NC(=O)[C@@H](NC(=O)[C@H](Cc1c[nH]c2ccccc12)NC(=O)[C@H](CC(C)C)NC(=O)[C@H](Cc1c[nH]c2ccccc12)NC(=O)[C@@H](NC(=O)[C@H](CCCCN)NC(=O)[C@H](CO)NC(=O)[C@H](CCCNC(=N)N)NC(=O)[C@H](CC(C)C)NC(=O)CN)[C@@H](C)CC)C(C)C)C(=O)N[C@@H](Cc1c[nH]c2ccccc12)C(=O)N[C@@H](CCC(N)=O)C(=O)N[C@@H](CCC(=O)O)C(=O)N[C@@H](CO)C(=O)N[C@@H](CC(N)=O)C(=O)N[C@@H](CCCCN)C(=O)N[C@@H](Cc1ccccc1)C(=O)N[C@@H](CCCCN)C(=O)N[C@@H](CCCCN)C(=O)N[C@@H](CCSC)C(=O)O [GLRSKIWLWVLLMIWQESNKFKKM]
MIC [19]: 12.5 µM (≈ 37.9 µg/mL)

Further lines, the compound ahead of its results:

Structure (SMILES): CC[C@H](C)[C@H](N)C(=O)N[C@@H](CC(C)C)C(=O)NCC(=O)N[C@@H](CCCCN)C(=O)N[C@@H](CC(C)C)C(=O)N[C@@H](CC(C)C)C(=O)N[C@@H](CCCCN)C(=O)N[C@H](C(=O)N[C@@H](C)C(=O)N[C@@H](C)C(=O)N[C@@H](CCCCN)C(=O)N[C@@H](CC(C)C)C(=O)N[C@@H](CC(C)C)C(=O)N[C@@H](CO)C(=O)N[C@@H](CC(N)=O)C(=O)N[C@@H](CC(C)C)C(N)=O)[C@@H](C)O [ILGKLLKTAAKLLSNL]
MIC [1]: 4 µM (≈ 6.78 µg/mL)
MIC [2]: 2 µM (≈ 3.39 µg/mL)
MIC [3]: 8 µM (≈ 13.6 µg/mL)
MIC [4]: 2 µM (≈ 3.39 µg/mL)
MIC [5]: 4 µM (≈ 6.78 µg/mL)
MIC [6]: 4 µM (≈ 6.78 µg/mL)
MIC [7]: 16 µM (≈ 27.1 µg/mL)
MIC [8]: 16 µM (≈ 27.1 µg/mL)
MIC [9]: 8 µM (≈ 13.6 µg/mL)

Structure (SMILES): CC(C)C[C@H](NC(=O)[C@H](CCCN=C(N)N)NC(=O)CNC(=O)[C@H](CCC(N)=O)NC(=O)[C@@H]1CCCN1C(=O)[C@H](CC(C)C)NC(=O)[C@H](CCCCN)NC(=O)[C@H](Cc1ccccc1)NC(=O)[C@@H](NC(=O)[C@@H]1CCCN1C(=O)[C@H](CCC(N)=O)NC(=O)[C@H](CO)NC(=O)[C@H](Cc1ccccc1)NC(=O)[C@H](CCCN=C(N)N)NC(=O)[C@@H](N)CCC(N)=O)[C@@H](C)O)C(=O)N[C@H](C(=O)N[C@@H](CC(C)C)C(=O)N[C@@H](CO)C(=O)N[C@@H](CCCN=C(N)N)C(=O)N[C@@H](CCCCN)C(=O)N[C@@H](Cc1ccccc1)C(=O)O)[C@@H](C)O [QRFSQPTFKLPQGRLTLSRKF]
MIC [13]: 9.86 µM (≈ 25 µg/mL)
MIC [14]: ≥ 39.4 µM
MIC [1]: 39.4 µM (≈ 100 µg/mL)
MIC [15]: 9.86 µM (≈ 25 µg/mL)
MIC [16]: 9.86 µM (≈ 25 µg/mL)
MIC [17]: 9.86 µM (≈ 25 µg/mL)
MIC [12]: 9.86 µM (≈ 25 µg/mL)
MIC [18]: 39.4 µM (≈ 100 µg/mL)

Structure (SMILES): CC(C)C[C@H](NC(=O)[C@H](CC(C)C)NC(=O)[C@H](Cc1ccccc1)NC(=O)[C@H](CC(C)C)NC(=O)[C@H](CC(C)C)NC(=O)[C@@H](N)CC(C)C)C(=O)N[C@@H](CCCCN)C(=O)N[C@@H](CCCCN)C(=O)N[C@@H](CCCN=C(N)N)C(=O)N[C@@H](CCCCN)C(=O)N[C@@H](CCCCN)C(=O)N[C@@H](CCCN=C(N)N)C(=O)N[C@@H](CCCCN)C(=O)N[C@@H](Cc1ccc(O)cc1)C(=O)O [LLLFLLKKRKKRKY]
MIC [12]: 8.66 µM (≈ 16 µg/mL)
MIC (Aspergillus fumigatus): 3.6 µM (≈ 6.65 µg/mL)
MIC [20]: 1.08 µM (≈ 2 µg/mL)
MIC [9]: 2.17 µM (≈ 4 µg/mL)
MIC [21]: 2.17 µM (≈ 4 µg/mL)

Structure (SMILES): CC[C@H](C)[C@H](NC(=O)[C@H](CC(C)C)NC(=O)[C@H](CCCCN)NC(=O)[C@@H](NC(=O)[C@H](CC(C)C)NC(=O)[C@H](CC(=O)O)NC(=O)CNC(=O)[C@@H](NC(=O)[C@@H](NC(=O)[C@H](CO)NC(=O)[C@@H](NC(=O)[C@@H](NC(=O)[C@H](CC(=O)O)NC(=O)[C@H](C)NC(=O)[C@H](C)NC(=O)[C@@H](N)CCSC)[C@@H](C)CC)[C@@H](C)CC)[C@@H](C)O)[C@@H](C)CC)C(C)C)C(=O)N[C@H](C(=O)N[C@@H](CC(N)=O)C(=O)N[C@H](C(=O)N[C@H](C(=O)N[C@@H](CCCCN)C(=O)N[C@@H](CCCCN)C(=O)N[C@@H](Cc1ccccc1)C(=O)N[C@@H](CCC(N)=O)C(=O)N[C@@H](CCCCN)C(=O)O)C(C)C)[C@@H](C)O)[C@@H](C)CC [MAADIISTIGDLVKLIINTVKKFQK]
MIC [22]: 18.1 µM (≈ 50 µg/mL)
MIC [23]: 18.1 µM (≈ 50 µg/mL)
MIC (Bacillus megaterium F04): 4.35 µM (≈ 12 µg/mL)
MIC [24]: 18.1 µM (≈ 50 µg/mL)
MIC [25]: 1.09 µM (≈ 3 µg/mL)
MIC [26]: 18.1 µM (≈ 50 µg/mL)
MIC [27]: 18.1 µM (≈ 50 µg/mL)
MIC [28]: 18.1 µM (≈ 50 µg/mL)
MIC [29]: 18.1 µM (≈ 50 µg/mL)
MIC [30]: 18.1 µM (≈ 50 µg/mL)
MIC [31]: 18.1 µM (≈ 50 µg/mL)
MIC [32]: 18.1 µM (≈ 50 µg/mL)
